The first data set addresses T1, CETP (Homo sapiens (Human), UniProt P11597). Description: RTA assay, CETP-catalyzed CE and TG transfer, recombinant CETP (2% human serum). In kind it is biochemical.
Settings: not given
The protocol: (§1) In Vitro Radioactive Assays of CETP-Catalyzed CE and TG Transfer (RTA Assay)
(§2) Reagents and sources are: [3H] cholesteryl oleate (GE #TRK.886), [3H] Triolein (Perkin-Elmer NET-431), Butylated hydroxyl toluene (Aldrich, #D4740-4), DOPC (Sigma, # P6354), Sodium Bromide (Fisher scientific #S255-500), PEG 8000 (Fisher, #BP233-1), and human HDL (Intracel Corp #RP-036).
(§3) An in vitro assay for determining IC50's to identify compounds that inhibit CETP transfer activity is performed based on a modification of a published method (Morton and Zilversmit, (1981) A plasma inhibitor of triglyceride and cholesteryl ester transfer activities, J. Biol. Chem. 256(23), 11992-11995). The ability of inhibitors to alter CETP activity is performed using two different assays: one using recombinant CETP and one using an endogenous plasma source of CETP. Both assays measure the transfer of [3H] cholesteryl oleate or [3H] triolein from exogenous LDL to HDL.
(§4) Radiolabeled donor particles are generated by first combining 100 μl of 200 μM butylated hydroxyl toluene in CHCl3, 216 μL of 21.57 mM DOPC in EtOH, and either 500 μCi [3H]-triolein (Perkin Elmer #NET-431) or 500 μCi [3H]-cholesteryl oleate (GE #TRK886) in a glass tube. Reagents are mixed, dried under nitrogen, and then resuspended in 2 mL of 50 mM Tris, 27 μM EDTA at pH 7.4. After a brief vortex, the solution is sonicated until clear and mixed with 20 mL of fresh human serum. The mixture is incubated overnight at 37° C. The [3H] labeled LDL substrate is separated at 1.063 g/ml density by sequential ultracentrifugal flotation in NaBr according to the method by (Havel, Eder et al. 1955; Chapman, Goldstein et al. 1981). Once isolated the particles are dialyzed 3× in CETP buffer (50 mM Tris, pH 7.4, 100 mM NaCl, 1 mM EDTA). Human HDL is purchased from Intracel and used as the acceptor particles.
(§5) Transfer assays are performed in a 96-well v-bottom polypropylene plate. For the RTA using recombinant CETP (2% RTA), an assay cocktail is prepared with the final concentrations 128 μg/mL HDL, 20 nM rCETP, 2% human serum, and 1×CETP buffer. 1 μL of each test compound diluted in DMSO is added to 47 μL of assay cocktail per well and incubated at 37° C. for 1 hour. To initiate the transfer reaction, 2 μL radiolabeled LDL is added. After an additional 60 min of incubation at 37° C., the transfer action is terminated by precipitation of LDL with an equal volume of 20% W/V PEG 8000. The plates are centrifuged at 2000 rpm for 30 minutes at 4° C. A 40 μL aliquot of the HDL-containing supernatant is transferred to a Packard Optiplate™ with 200 μL of MicroScint™ 20. After mixing, plates are counted by liquid scintillation. Counts present in the supernatant for blanks (wells containing only HDL acceptor, CETP buffer and DMSO) are subtracted from those containing test compounds and used to correct for non-specific transfer.
Comparison of the counts of samples with inhibitors to an uninhibited (DMSO only) positive control yield a percent inhibition. A plot of percent inhibition vs. log of inhibitor concentration, fit to a Sigmoidal 4 parameter equation is used to calculate IC50.
Target sequence in this assay (P11597 18-493 limits assumed): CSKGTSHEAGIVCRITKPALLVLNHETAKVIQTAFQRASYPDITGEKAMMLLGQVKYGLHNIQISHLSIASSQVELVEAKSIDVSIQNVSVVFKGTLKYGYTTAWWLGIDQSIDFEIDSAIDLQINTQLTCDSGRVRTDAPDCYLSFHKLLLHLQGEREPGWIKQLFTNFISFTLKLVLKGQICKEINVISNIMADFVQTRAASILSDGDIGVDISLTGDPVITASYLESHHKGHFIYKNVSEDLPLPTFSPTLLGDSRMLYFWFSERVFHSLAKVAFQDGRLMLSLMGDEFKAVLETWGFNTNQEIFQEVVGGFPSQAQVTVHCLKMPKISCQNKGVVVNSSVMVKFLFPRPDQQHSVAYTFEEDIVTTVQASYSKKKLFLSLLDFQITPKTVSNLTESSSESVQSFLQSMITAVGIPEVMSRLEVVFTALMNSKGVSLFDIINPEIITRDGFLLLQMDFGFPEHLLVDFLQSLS
Consider `O[C@H](CN1c2ccccc2N(Cc2cccc(OC(F)(F)F)c2)C[C@H]1c1ccccc1)C(F)(F)F` [Example 1, (R)-3-((R)-4-(3-trifluoromethoxy)-2-phenyl-3,4-dihydroquinoxalin-1(2H)-yl)-1,1,1-trifluoropropan-2-ol], for which the IC50 was 19 nM.

For the compound `O[C@@H](CN1c2ccccc2N(Cc2cccc(OC(F)(F)F)c2)C[C@H]1c1ccccc1)C(F)(F)F` [Example 2, (S)-3-((R)-4-(3-trifluoromethoxy)-2-phenyl-3,4-dihydro-quinoxalin-1(2H)-yl)-1,1,1-trifluoro-propan-2-ol], the IC50 is 1350 nM.

For `O[C@H](CN1c2ccccc2N(Cc2cc(C(F)(F)F)cc(C(F)(F)F)c2)C[C@H]1c1ccccc1)C(F)(F)F` [Example 3], the IC50 turned out to be 74 nM.

For the compound `O[C@H](CN1c2ccccc2N(Cc2cccc(OC(F)(F)C(F)F)c2)C[C@H]1c1ccccc1)C(F)(F)F` [Example 4, (R)-1,1,1-trifluoro-3-((R)-2-phenyl-4-(3-(1,1,2,2-tetrafluoroethoxy)benzyl)-3,4-dihydroquinoxalin-1(2H)-yl)-propan-2-ol], the IC50 stood at 112 nM.

For the compound `O[C@H](CN1c2ccccc2N(Cc2cc(OC(F)(F)F)ccc2F)C[C@H]1c1ccccc1)C(F)(F)F` [Example 5, (R)-1,1,1-trifluoro-3-((R)-4-(2-fluoro-5-(trifluoromethoxy)benzyl)-2-phenyl-3,4-dihydroquinoxalin-1(2H)-yl)-propan-2-ol], the IC50 was found to be 11 nM.

As to `CCc1cc(CN2C[C@@H](c3ccccc3)N(C[C@@H](O)C(F)(F)F)c3ccccc32)ccc1Cl` [Example 6, (R)-3-((R)-4-(4-chloro-3-ethylbenzyl)-2-phenyl-3,4-dihydroquinoxalin-1(2H)-yl)-1,1,1-trifluoropropan-2-ol], the IC50 is 30 nM.

Turning to `O[C@H](CN1c2ccccc2N(Cc2cccc(F)c2)C[C@H]1c1ccccc1)C(F)(F)F` [Example 7, (R)-3-((R)-4-(3-fluorobenzyl)-2-phenyl-3,4-dihydroquinoxalin-1(2H)-yl)-1,1,1-trifluoropropan-2-ol], the IC50 amounted to 110 nM.

Consider `CCOc1cccc(CN2C[C@@H](c3ccccc3)N(C[C@@H](O)C(F)(F)F)c3ccccc32)c1` [Example 8, (R)-3-((R)-4-(3-ethoxybenzyl)-2-phenyl-3,4-dihydroquinoxalin-1(2H)-yl)-1,1,1-trifluoropropan-2-ol], for which the IC50 is 301 nM.

Take `O[C@H](CN1c2ccccc2N(Cc2cccc(C(F)(F)F)c2)C[C@H]1c1ccccc1)C(F)(F)F` [Example 9, (R)-3-((R)-4-(3-trifluoromethylbenzyl)-2-phenyl-3,4-dihydroquinoxalin-1(2H)-yl)-1,1,1-trifluoropropan-2-ol]: the IC50 came out at 47 nM.

Turning to `O[C@H](CN1c2ccccc2N(Cc2cccc(OC(F)(F)F)c2)C[C@H]1c1ccccc1)C(F)(F)F` [Example 17, (R)-3-((R)-4-(3-trifluoromethoxy)-2-phenyl-3,4-dihydroquinoxalin-1(2H)-yl)-1,1,1-trifluoro-propan-2-ol], the IC50 was 34 nM.

The target in another data set is T1, CETP. Put plainly: Scintillation Proximity Assay (SPA) for CETP activity. Format: biochemical. Conditions: Table 1, read-out: IC50. The protocol: Protocol: Scintillation Proximity Assay (SPA) for CETP Activity
First, low density lipoprotein (LDL) (Meridian) was biotinylated by incubating LDL with biotin for 1 hour on ice, after which it was dialyzed to remove free biotin. Then compounds at varying concentrations were incubated with 15 nM CETP (reagent production group, In Vitro Pharmacology, MRL Rahway) and 50 ug/ml of the biotinylated LDL in 50 mM HEPES, 150 mM NaCl, pH 7.4, for 1 hour at 37° C. The reaction was started by adding 3H-cholesterol ester high density lipoprotein (HDL) (American Radiochemicals Corp) at a concentration of ˜0.6 nM. The reaction proceeded for 2 hours at 37° C., after which time it was quenched by the addition of 12% acetic acid. PVT streptavadin-coated scintillation proximity beads, which had been brought to room temperature, were then added at a concentration of 4 mg/ml. The assay was then mixed and counted after one half hour in a Microbeta plate reader.
Target sequence in this assay (P11597 18-493): as the sequence (P11597 18-493 limits assumed) above
On to `O[C@H](CN1c2ccccc2N(C2C=Cc3ccccc32)CC1c1cccc(OC(F)(F)C(F)F)c1)C(F)(F)F` (stereo partly drawn) [Example 56, (2R)-3(4-(1H-inden-1-yl))-2-(3-(1,1,2,2,- tetrafluoroethoxy)phenyl)-3,4-dihydroquinoxalin-1(2H)-yl-1,1,1-trifluoropropan-2-ol], for which the IC50 is 11 nM.

For the compound `O[C@H](CN1c2ccccc2N(C2CCCc3ccccc32)CC1c1cccc(C(F)(F)F)c1)C(F)(F)F` (stereo partly drawn) [Example 57, (2R)-1,1,1-trifluoro-3(4-(1,2,3,4-tetrahydronaphthalen-1-yl)-2-(3-trifluoromethyl)phenyl)-3,4-dihydroquinoxalin-1(2H)-yl-propan-2-ol], the IC50 worked out at 12 nM.

The data set is the same for the next values; noted with them: Table 2, read-out: IC50 SPA.
With `O[C@H](CN1c2ccccc2N(Cc2ccnc(N3CCOCC3)c2)C[C@H]1c1cccc(C(F)(F)F)c1)C(F)(F)F` [Example 62], the IC50 worked out at 326 nM.

As for `O[C@H](CN1c2ccccc2N(Cc2ncccc2N2CCOCC2)C[C@H]1c1cccc(C(F)(F)F)c1)C(F)(F)F` [Example 63], the IC50 stood at 1570 nM.

Consider `O[C@H](CN1c2ccccc2N(Cc2cccc(OC(F)F)c2)C[C@H]1c1cccc(C(F)(F)F)c1)C(F)(F)F` [Example 64], for which the IC50 came to 16 nM.

On to `O[C@H](CN1c2c(ccc(F)c2F)N(Cc2cccc(OC(F)(F)F)c2)CC1c1cccc(C(F)(F)F)c1)C(F)(F)F` (stereo partly shown) [Example 65], for which the IC50 came out at 157 nM.

Turning to `O[C@H](CN1c2ccccc2N(CC2=CCCCC2)C[C@H]1c1cccc(OC(F)(F)F)c1)C(F)(F)F` [Example 66], the IC50 came to 8 nM.

Consider `O[C@H](CN1c2ccccc2N(CC2CCOCC2)C[C@H]1c1cccc(OC(F)(F)F)c1)C(F)(F)F` [Example 67], for which the IC50 was 29 nM.

In the case of `O[C@H](CN1c2ccccc2N(Cc2cccc(OC(F)(F)F)c2)CC1c1ccc(-c2ccccc2)cc1)C(F)(F)F` (stereo partly shown) [Example 68], the IC50 is 25 nM.

Regarding `O[C@H](CN1c2ccccc2N(Cc2cccc(OC(F)(F)F)c2)CC1c1cccc(-c2ccccc2)c1)C(F)(F)F` (stereo partly shown) [Example 69], the IC50 came to 163 nM.

The target of a further data set is endogenous CETP from serum (Homo sapiens (Human), UniProt P11597). Description: RTA assay using endogenous CETP from serum (95% human serum). In kind it is biochemical. The note with it: RTA in 95% human serum, Table 2. The protocol: as §1, §2, §3, §4
endogenous CETP from serum, sequence (P11597 18-493 limits assumed): as above
as §5, with “Counts present in the supernatant for blanks (wells containing only HDL acceptor, CETP buffer and DMSO) are subtracted from those containing test compounds and used to correct for non-specific transfer.” left out
With `O[C@H](CN1c2ccc(F)cc2N(Cc2cccc(OC(F)(F)F)c2)CC1c1cccc(OC(F)F)c1)C(F)(F)F` (stereo partly shown) [Example 58], the IC50 worked out at 16 nM.

For `CC(C)(O)c1ccc(C2CN(Cc3cccc(OC(F)(F)F)c3)c3ccccc3N2C[C@@H](O)C(F)(F)F)cc1` (stereo partly shown) [Example 59], the IC50 came to 24 nM.

Compound `O[C@H](CN1c2ccccc2N(Cc2cccc(OC(F)F)c2)CC1c1cccc(OC(F)F)c1)C(F)(F)F` (stereo partly shown) [Example 60] had an IC50 of 14 nM.

`O[C@H](CN1c2ccccc2N(Cc2cccc(OC(F)(F)F)c2)CC1c1cccc(OC(F)F)c1)C(F)(F)F` (stereo partly shown) [Example 61] gave an IC50 of 7.5 nM.

Tested on in a further data set: not given
Experiment: not given
The note with it: patients treated with anacetrapib; cited from earlier work.
For `COc1cc(F)c(C(C)C)cc1-c1ccc(C(F)(F)F)cc1CN1C(=O)O[C@H](c2cc(C(F)(F)F)cc(C(F)(F)F)c2)[C@@H]1C` [anacetrapib], the increase in mortality entry was “unlikely”.

Still in this data set, the particulars now being: patients, with baseline statin therapy, compared with just a statin; cited from earlier work.
Take `COc1cc(F)c(C(C)C)cc1-c1ccc(C(F)(F)F)cc1CN1C(=O)O[C@H](c2cc(C(F)(F)F)cc(C(F)(F)F)c2)[C@@H]1C` [anacetrapib]: the “decrease of LDL-C” value is 40% and the “increase of HDL-C” value is reported as 138%.

Tested on in another data set: not given
Experiment: not given
Conditions: torcetrapib and atorvastatin concomitantly compared with atorvastatin alone; cited from earlier work.
Turning to `CCOC(=O)N1c2ccc(C(F)(F)F)cc2[C@@H](N(Cc2cc(C(F)(F)F)cc(C(F)(F)F)c2)C(=O)OC)C[C@H]1CC` [torcetrapib], the mortality entry is listed as “higher incidence of mortality”.

What is called IC50 is the concentration that gives 50% inhibition.

The values are drawn from patent publication US9126976B2 (Merck Sharp & Dohme Corp., priority 2011, dated 2015).
